In PubChem BioAssay AID1188 (EPA DSSTox, 2008):
Calls of active or inactive are those of the source.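 The calls were made as follows: active = a concentration killing half the fathead minnows in the acute test was determined; inconclusive = some fish died but not half at top dose; inactive = no fish died even at top dose.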

system: Fathead minnow (Pimephales promelas) acute toxicity, lethality; assay: DSSTox (EPAFHM) EPA Fathead Minnow Acute Toxicity
In short: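 Activity score is an integer 1–100 scaling of log10(1/LC50 in mmol) between dataset minimum and maximum, highest potency = 100. Underlying LC50 values (mg) come from the U.S. EPA MED database.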

For CCCCCCCCCCN, which Potency is on record?
The Potency was 6.55 µM.

Which Potency does the source give for C#CC(C)(O)CCC(C)C (stereo not drawn) here?
Its Potency is 349 µM.

O=Cc1cc(Cl)ccc1O was tested. Which Potency did it give?
Its Potency is 4.92 µM.

Which Potency does the source give for OC(C(F)(F)F)C(F)(F)F here?
The Potency was 1450 µM.

CNC(=O)Oc1ccc(N(C)C)c(C)c1 was tested. Which Potency did it give?
Its Potency is 9.36 µM.

With CC1(C)NC(=O)NC1=O as the molecule, how does the Potency read?
Its Potency is 129000 µM.

How did the Potency turn out when Cc1ccccc1F was run?
Its Potency is 176 µM.

For O=c1cccc(Cl)[nH]1, which Potency is on record?
The Potency was 1650 µM.

Cc1c(Cl)cccc1NC=O was tested. Which Potency did it give?
The Potency was 275 µM.

For CCOc1cc(C=O)ccc1O, which Potency is on record?
The Potency was 527 µM.

For CC1=CC(=O)c2ccccc2C1=O, which Potency is on record?
The Potency was 0.639 µM.

Oc1ccc(Cl)cc1O was tested. Which Potency did it give?
Its Potency is 10.9 µM.

C#CCN(CC#C)CC#C was tested. Which Potency did it give?
The Potency was 2260 µM.

How did the Potency turn out when C=Cc1cccc(CCl)c1 was run?
The Potency was 2.03 µM.

ClC(Cl)C(Cl)(Cl)Cl was tested. Which Potency did it give?
Its Potency is 37.2 µM.

CCCCCCCBr was tested. Which Potency did it give?
The Potency was 8.21 µM.

O=Cc1cccnc1 was tested. Which Potency did it give?
Its Potency is 153 µM.

Which Potency does the source give for c1ccc(Nc2ccccc2)cc1 here?
The Potency was 22.4 µM.

Which Potency does the source give for CC(C)c1ccc(C=O)cc1 here?
Its Potency is 44.7 µM.

With C(/C=C/c1ccccc1)=C\c1ccccc1 as the molecule, how does the outcome read?
The outcome was “inactive; moa not determined either due to lack of toxicity at saturation or late test res”.

How did the Potency turn out when Cc1ccc(O)cc1 was run?
The Potency was 153 µM.

How did the Potency turn out when ClCCN1CCCC1 was run?
Its Potency is 900 µM.

For CC(=O)CCC=C(C)C, which Potency is on record?
Its Potency is 679 µM.

Which Potency does the source give for OCCOCCOCCO here?
Its Potency is 459000 µM.

With C=CCC(O)C=C (stereo not drawn) as the molecule, how does the Potency read?
Its Potency is 388 µM.

NC(=O)c1cccc(Br)c1 was tested. Which Potency did it give?
Its Potency is 463 µM.

How did the Potency turn out when CC(C)=CC=C(C)C was run?
The Potency was 34.3 µM.

COc1cccc(O)c1 was tested. Which Potency did it give?
Its Potency is 596 µM.
